Data on four compounds can be found in US9486506B2 (Novo Nordisk A/S, priority 2011, dated 2016).

One series has as its target T1, glucagon receptor (Homo sapiens, UniProt P47871).
T1 construct: expressed in transfected cells
Put plainly: Assay (I) Glucagon activity (cAMP biosensor, FLIPR). Type of series: cell-based.

The nature of series [1]: Assay (X) Chemical stability assessment by RP-UPLC. As to conditions: pH 8.15, 14 days at 37° C. vs 5° C., 333 μM. Type of series: physicochemical.

Numbered stars: 1 amine (or outer) side, 2 acyl side, 3 side chain; on linkers, the order of the positions; unused ones are H or OH. Side chains are listed from the residue outwards. Peptide text beside a SMILES is read from it. * marks the point of attachment. X1 = O=C(CCCCCCCCCCCCCCCc1nnn[nH]1)NS(=O)(=O)CCCC(=O)*; C18 diacid = O=C(O)CCCCCCCCCCCCCCCCC(=O)*; C16 diacid = O=C(O)CCCCCCCCCCCCCCC(=O)*; γGlu = O=C(O)[C@H](CCC(=O)[*:2])N[*:1]; AEEA = NCCOCCOCC(=O)O

T1 sequence (P47871 26-477): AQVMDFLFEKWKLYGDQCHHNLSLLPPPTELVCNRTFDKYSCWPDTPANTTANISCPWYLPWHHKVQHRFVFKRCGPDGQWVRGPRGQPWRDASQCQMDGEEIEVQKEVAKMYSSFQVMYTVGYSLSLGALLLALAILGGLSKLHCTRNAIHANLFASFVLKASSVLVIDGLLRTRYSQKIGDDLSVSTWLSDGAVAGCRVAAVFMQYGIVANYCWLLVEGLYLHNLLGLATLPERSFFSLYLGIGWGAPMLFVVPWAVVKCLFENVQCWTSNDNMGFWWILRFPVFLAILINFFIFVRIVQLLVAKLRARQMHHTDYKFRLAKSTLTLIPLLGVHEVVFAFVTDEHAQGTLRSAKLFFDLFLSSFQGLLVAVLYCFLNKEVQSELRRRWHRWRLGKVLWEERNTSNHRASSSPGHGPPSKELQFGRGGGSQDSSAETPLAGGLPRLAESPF

Broadly, the EC50 is the concentration needed to bring the measured effect to its halfway point. In the case of `CC(C)C[C@H](NC(=O)[C@H](Cc1ccc(O)cc1)NC(=O)[C@H](CCCNC(=N)N)NC(=O)[C@H](CO)NC(=O)[C@H](Cc1ccc(O)cc1)NC(=O)[C@H](CC(=O)O)NC(=O)[C@H](CO)NC(=O)[C@@H](NC(=O)[C@H](Cc1ccccc1)NC(=O)[C@@H](NC(=O)CNC(=O)[C@H](CCC(N)=O)NC(=O)[C@H](CO)NC(=O)[C@@H](N)Cc1c[nH]cn1)[C@@H](C)O)[C@@H](C)O)C(=O)N[C@@H](CCC(=O)O)C(=O)N[C@@H](CO)C(=O)N[C@@H](CCCNC(=N)N)C(=O)N[C@@H](CCCNC(=N)N)C(=O)N[C@@H](C)C(=O)N[C@@H](CCC(N)=O)C(=O)N[C@@H](CC(=O)O)C(=O)N[C@@H](Cc1ccccc1)C(=O)N[C@H](C(=O)N[C@@H](CCCCNC(=O)CC[C@H](NC(=O)CC[C@H](NC(=O)COCCOCCNC(=O)COCCOCCNC(=O)CC[C@H](NC(=O)CCCCCCCCCCCCCCC(=O)O)C(=O)O)C(=O)O)C(=O)O)C(=O)N[C@@H](Cc1c[nH]c2ccccc12)C(=O)N[C@@H](CC(C)C)C(=O)N[C@@H](CC(C)C)C(=O)N[C@@H](CO)C(=O)N[C@H](C(=O)O)[C@@H](C)O)C(C)C` [Example 70, N^ε24-[(4S)-4-carboxy-4-[[(4S)-4-carboxy-4-[[2-[2-[2-[[2-[2-[2-[[(4S)-4-carboxy-4-(15-carboxypentadecanoylamino)butanoyl]amino]ethoxy]ethoxy]acetyl]amino]ethoxy]ethoxy]acetyl]amino]butanoyl]amino]butanoyl]-[Arg12,Glu15,Lys24,Leu27,Ser28]-Glucagon] (H-HSQGTFTSDYSRYLESRRAQDFVK([γGlu-γGlu-AEEA-AEEA-γGlu-C16 diacid])WLLST-OH), it took 0.14 nM to reach a half-maximal effect at glucagon receptor (EC50). In series [1], the “Chemical stability [Purity loss/14 days 37 C.]” value is 7.6%.
The matching figures for `CC(C)C[C@H](NC(=O)[C@H](CC(=O)O)NC(=O)[C@H](CC(C)C)NC(=O)[C@H](Cc1ccc(O)cc1)NC(=O)[C@H](CCCNC(=N)N)NC(=O)[C@H](CO)NC(=O)[C@H](Cc1ccc(O)cc1)NC(=O)[C@H](CC(=O)O)NC(=O)[C@H](CO)NC(=O)[C@@H](NC(=O)[C@H](Cc1ccccc1)NC(=O)[C@@H](NC(=O)CNC(=O)[C@H](CCC(N)=O)NC(=O)[C@H](CO)NC(=O)[C@@H](N)Cc1c[nH]cn1)[C@@H](C)O)[C@@H](C)O)C(=O)N[C@@H](CCCNC(=N)N)C(=O)N[C@@H](CCCNC(=N)N)C(=O)N[C@@H](C)C(=O)N[C@@H](CCC(N)=O)C(=O)N[C@@H](CC(=O)O)C(=O)N[C@@H](Cc1ccccc1)C(=O)N[C@H](C(=O)N[C@@H](CCCCNC(=O)CC[C@H](NC(=O)CC[C@H](NC(=O)COCCOCCNC(=O)COCCOCCNC(=O)CCCS(=O)(=O)NC(=O)CCCCCCCCCCCCCCCc1nnn[nH]1)C(=O)O)C(=O)O)C(=O)N[C@@H](Cc1c[nH]c2ccccc12)C(=O)N[C@@H](CC(C)C)C(=O)N[C@@H](CC(C)C)C(=O)N[C@@H](CO)C(=O)N[C@H](C(=O)O)[C@@H](C)O)C(C)C` [Example 68, N^ε24-[(4S)-4-carboxy-4-[[(4S)-4-carboxy-4-[[2-[2-[2-[[2-[2-[2-[4-[16-(1H-tetrazol-5-yl)hexadecanoylsulfannoyl]butanoylamino]ethoxy]ethoxy]acetyl]amino]ethoxy]ethoxy]acetyl]amino]butanoyl]amino]butanoyl]-[Arg12, Leu16, Lys24, Leu27,Ser28]-Glucagon] (H-HSQGTFTSDYSRYLDLRRAQDFVK([γGlu-γGlu-AEEA-AEEA-X1])WLLST-OH): 0.357 nM and 5.6%.
The corresponding values for `CC[C@H](C)[C@H](NC(=O)[C@H](CC(=O)O)NC(=O)[C@H](CC(C)C)NC(=O)[C@H](Cc1ccc(O)cc1)NC(=O)[C@H](CCCCN)NC(=O)[C@H](CO)NC(=O)[C@H](Cc1ccc(O)cc1)NC(=O)[C@H](CC(=O)O)NC(=O)[C@H](CO)NC(=O)[C@@H](NC(=O)[C@H](Cc1ccccc1)NC(=O)[C@@H](NC(=O)CNC(=O)[C@H](CCC(N)=O)NC(=O)[C@H](CO)NC(=O)[C@@H](N)Cc1c[nH]cn1)[C@@H](C)O)[C@@H](C)O)C(=O)N[C@@H](CCCNC(=N)N)C(=O)N[C@@H](CCCNC(=N)N)C(=O)N[C@@H](C)C(=O)N[C@@H](CCC(N)=O)C(=O)N[C@@H](CC(=O)O)C(=O)N[C@@H](Cc1ccccc1)C(=O)N[C@H](C(=O)N[C@@H](CCCCNC(=O)CC[C@H](NC(=O)CC[C@H](NC(=O)CC[C@H](NC(=O)CC[C@H](NC(=O)CCCCCCCCCCCCCCCCC(=O)O)C(=O)O)C(=O)O)C(=O)O)C(=O)O)C(=O)N[C@@H](Cc1c[nH]c2ccccc12)C(=O)N[C@@H](CC(C)C)C(=O)N[C@@H](CC(C)C)C(=O)N[C@@H](CO)C(=O)N[C@H](C(=O)O)[C@@H](C)O)C(C)C` [Example 79, N^ε24-[(4S)-4-carboxy-4-[[(4S)-4-carboxy-4-[[(4S)-4-carboxy-4-[[(4S)-4-carboxy-4-(17-carboxyheptadecanoylamino)butanoyl]amino]butanoyl]amino]butanoyl]amino]butanoyl]-[Ile16,Lys24,Leu27,Ser28]-Glucagon] are 0.189 nM and 3.8%.
The matching figures for `CC(C)C[C@H](NC(=O)[C@H](Cc1c[nH]c2ccccc12)NC(=O)[C@H](CCCCNC(=O)CC[C@H](NC(=O)CC[C@H](NC(=O)COCCOCCNC(=O)COCCOCCNC(=O)CC[C@H](NC(=O)CCCCCCCCCCCCCCCCC(=O)O)C(=O)O)C(=O)O)C(=O)O)NC(=O)[C@@H](NC(=O)[C@H](Cc1ccccc1)NC(=O)[C@H](CC(=O)O)NC(=O)[C@H](CCC(N)=O)NC(=O)[C@H](C)NC(=O)[C@H](CCCNC(=N)N)NC(=O)[C@H](CCCNC(=N)N)NC(=O)[C@@H](NC(=O)[C@H](CC(=O)O)NC(=O)[C@H](CC(C)C)NC(=O)[C@H](Cc1ccc(O)cc1)NC(=O)[C@H](CCCNC(=N)N)NC(=O)[C@H](CO)NC(=O)[C@H](Cc1ccc(O)cc1)NC(=O)[C@H](CC(=O)O)NC(=O)[C@H](CO)NC(=O)[C@@H](NC(=O)[C@H](Cc1ccccc1)NC(=O)[C@@H](NC(=O)CNC(=O)[C@H](CCC(N)=O)NC(=O)[C@H](CO)NC(=O)[C@@H](N)Cc1c[nH]cn1)[C@@H](C)O)[C@@H](C)O)[C@@H](C)O)C(C)C)C(=O)N[C@@H](CC(C)C)C(=O)N[C@@H](CC(N)=O)C(=O)N[C@H](C(=O)O)[C@@H](C)O` [Example 10, N^ε24-[(4S)-4-carboxy-4-[[(4S)-4-carboxy-4-[[2-[2-[2-[[2-[2-[2-[[(4S)-4-carboxy-4-(17-carboxyheptadecanoylamino)butanoyl]amino]ethoxy]ethoxy]acetyl]amino]ethoxy]ethoxy]acetyl]amino]butanoyl]amino]butanoyl]-[Arg^12,Thr^16,Lys^24,Leu^27]-Glucagon] (H-HSQGTFTSDYSRYLDTRRAQDFVK([γGlu-γGlu-AEEA-AEEA-γGlu-C18 diacid])WLLNT-OH): 0.031 nM and 10.3%.
